From patent publication US8247211B2, “Glycopeptide antibiotics” (American Cyanamid Company, priority 2001, dated 2012)
In brackets after ≈: the same amount, converted by molar mass. Several values for one entry are separate records, joined by “and”; a condition that tells them apart may be missing. Equal entries are not always repeated.

Key:
[1] = system: Staphylococcus aureus-SMITH (GC 4543); test: Acute lethal infection in mice (ED50); assay type: in vivo; details: female CD-1 mice, intraperitoneal challenge, intravenous dose 30 min. after infection, 7 day survival ratios
How it was run: (§1)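 Lethal systemic infection model: female CD-1 mice, 20 ± 1-2 g, intraperitoneal challenge. Single intravenous treatment 30 min after infection; 7-day survival, pooled from 3 tests, gives ED50.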

[2] = system: Enterococcus faecalis (GC 6189), vancomycin resistant strain; test: Acute lethal infection in mice (ED50); assay type: in vivo; details: female CD-1 mice, intraperitoneal challenge, intravenous dose 30 min. after infection, 7 day survival ratios
How it was run: as §1

[3] = assay type: in vivo; details: mice, 20 mg/kg intravenously daily for 9 days, serum on day 10
Method: 20-day-old CD-1 mice were divided into a vehicle control group (5 mice) and a treatment group (5 mice). Samples of glycopeptide antibiotics were administered at 20 mg/kg intravenously daily for 9 days. Animals were necropsied on day 10 Sera were analyzed for BUN (blood urea nitrogen), creatinine, AST (aspartic aminotransferase), and ALT (alanine aminotransferase) by routine, standard, automated methods using an Hitachi 747 chemistry analyzer.

Staphylococcus sp. = test: In vitro antibacterial evaluation: minimum inhibitory concentration (MIC), broth dilution method; assay type: cell-based; details: for MIC Staphylococcus aureus-SMITH (GC 4543): strain GC 4543; for MIC Staphylococcus haemolyticus (GC 4546): strain GC 4546; for MIC Coagulase Negative Staphylococcus (GC 4547): strain GC 4547; for MIC Coagulase Negative Staphylococcus (GC 4548): strain GC 4548; for MIC Coagulase Negative Staphylococcus (GC 4549): strain GC 4549; for MIC Coagulase Negative Staphylococcus (GC 4551): strain GC 4551; for MIC Coagulase Negative Staphylococcus (GC 6257): strain GC 6257
How it was run: (§2)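 MIC read as lowest drug level preventing visible growth. Organisms at 5×10^5 CFU/mL were exposed to a 64-0.06 μg/mL dilution series in Muller-Hinton II […] following NCCLS broth dilution standard M7-A2.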

Escherichia coli = test: as above; assay type: cell-based; details: 5×10^5 CFU/mL, 18 hours at 35° C.
How it was run: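 An MIC is reported for each organism as the least concentration giving inhibition, using broth dilution over 64-0.06 μg/mL with a 5×10^5 CFU/mL inoculum.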

Streptococcus sp. = test: as above; assay type: cell-based; details: broth dilution, 5×10^5 CFU/mL, 18 hours at 35° C.
How it was run: as §2

Enterococcus sp. = test: as above; assay type: cell-based; details: broth dilution, 5×10^5 CFU/mL, 18 hours at 35° C.
How it was run: as §2

[4] = Anatomic pathology (heart and kidney histopathology) in mice; assay type: in vivo, CD-1 mice; details: 20 mg/kg intravenously daily for 9 days, microscopic histopathology on day 10
How it was run: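 Juvenile CD-1 mice (20 days old; 5 vehicle, 5 treated) received glycopeptide antibiotic 20 mg/kg i.v. daily for 9 days. Necropsied tissues formalin-fixed, paraffin-embedded, H&E stained and examined microscopically; findings graded slight to severe versus controls.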

Staphylococcus aureus = test: Zone of inhibition, assay plate Staphylococcus aureus; assay type: cell-based; details: 25 μl of extract per 5 mm well, Nutrient Agar pH 6.8, incubated overnight at 37° C.
Method: Inoculate 10 mL of Tryptic Soy Broth with a loopful of slant culture, Staphylococcus aureus, and place in a stationary rack at 37° C. After 16-18 hour incubation, the Optical Density (OD) of the culture is read @ A600 nm, using a 1:10 dilution. OD should be between 0.1-0.3, and if not adjust with Tryptic Soy Broth. A 40 mL sample of Nutrient Agar, pH 6.8 is inoculated with 90 μl of S. aureus culture and poured into a sterile petri dish. When the agar has solidified, wells (5 mm) are plated using an automated welling device. Wells are inoculated with 25 μl of extract and incubated overnight at 37° C. Zones of inhibition are measured and recorded the following morning.

[5] = broth dilution, 18 hours at 35° C.

SMILES: CC(c1ccccc1)C1NC(=O)CNC(=O)C(CO)NC(=O)C(C(O)C2CNC(=N)N2C2OC(CO)C(O)C(O)C2O)NC(=O)C(C(O)C2CNC(=N)N2)NC(=O)C(Cc2ccc(OC3OC(CO)C(OC4OC5COC(Cc6ccccc6)OC5C(O)C4O)C(O)C3O)cc2)NC1=O (stereo not drawn) [Example 102, Cyclo[glycyl-β-methylphenylalanyl-O-[4-O-(4,6-O-phenethylidenehexopyranosyl)-hexopyranosyl]tyrosyl-3-(2-iminoimidazoliclin-4-yl)seryl-3-(3-hexopyranosyl-2-iminoimidazolidin-4-yl)serylseryl]]
- median effective dose (ED50), Staphylococcus aureus-SMITH (GC 4543) [1]: 0.23-0.43
- median effective dose (ED50), Enterococcus faecalis (GC 6189) [2]: 1.04 mg/kg
- Clinical Chemistry (Day 10) % of Control, AST [3]: +340%
- Clinical Chemistry (Day 10) % of Control, Creatinine [3]: +100%
- MIC Staphylococcus aureus (ATCC 29213) (Staphylococcus sp.; strain ATCC 29213): 1 to 2 µg/mL
- MIC Staphylococcus aureus (GC 1131) (Staphylococcus sp.; strain GC 1131): 2 µg/mL (≈ 1.43 µM)
- MIC Staphylococcus aureus (GC 3051) (Staphylococcus sp.; strain GC 3051): 1 µg/mL (≈ 0.716 µM)
- MIC Staphylococcus aureus (GC 3053) (Staphylococcus sp.; strain GC 3053): 1 to 2 µg/mL
- MIC Staphylococcus aureus (GC 4541) (Staphylococcus sp.; strain GC 4541): 1 to 2 µg/mL
- MIC Staphylococcus aureus (GC 4542) (Staphylococcus sp.; strain GC 4542): 0.5 to 1 µg/mL
- MIC Staphylococcus aureus-SMITH (GC 4543) (Staphylococcus sp.; 18 hours at 35° C.): 0.5 to 1 µg/mL
- MIC Staphylococcus aureus-SMITH (GC 4543) (Staphylococcus sp.; [5]): 0.5 to 1 µg/mL
- MIC Staphylococcus aureus (GC 4544) (Staphylococcus sp.; strain GC 4544): 1 to 2 µg/mL
- MIC Staphylococcus aureus (GC 4545) (Staphylococcus sp.; strain GC 4545): 0.5 to 1 µg/mL
- MIC Staphylococcus haemolyticus (GC 4546) (Staphylococcus sp.): 0.5 to 1 µg/mL
- MIC Staphylococcus haemolyticus (GC 4546) (Staphylococcus sp.; [5]): 0.5 to 1 µg/mL
- MIC Coagulase Negative Staphylococcus (GC 4547) (Staphylococcus sp.): 1 µg/mL (≈ 0.716 µM)
- MIC Coagulase Negative Staphylococcus (GC 4547) (Staphylococcus sp.; [5]): 1 µg/mL (≈ 0.716 µM)
- MIC Coagulase Negative Staphylococcus (GC 4548) (Staphylococcus sp.): 0.5 to 1 µg/mL
- MIC Coagulase Negative Staphylococcus (GC 4548) (Staphylococcus sp.; [5]): 0.5 to 1 µg/mL
- MIC Coagulase Negative Staphylococcus (GC 4549) (Staphylococcus sp.): 0.5 to 1 µg/mL
- MIC Coagulase Negative Staphylococcus (GC 4549) (Staphylococcus sp.; [5]): 0.5 to 1 µg/mL
- MIC Coagulase Negative Staphylococcus (GC 4551) (Staphylococcus sp.): 1 to 2 µg/mL
- MIC Coagulase Negative Staphylococcus (GC 4551) (Staphylococcus sp.; [5]): 1 to 2 µg/mL
- MIC Coagulase Negative Staphylococcus (GC 6257) (Staphylococcus sp.): 0.5 µg/mL (≈ 0.358 µM)
- MIC Coagulase Negative Staphylococcus (GC 6257) (Staphylococcus sp.; [5]): 0.5 µg/mL (≈ 0.358 µM)
- MIC Escherichia coli (GC 4560) (Escherichia coli): 0.5 to 1 µg/mL
- MIC Streptococcus pneumoniae (GC 1894) (Streptococcus sp.): <0.06 µg/mL
- MIC Streptococcus pneumonine (ATCC 6301) (Streptococcus sp.): <0.06 µg/mL
- MIC Enterococccus avium (GC 4558) (Enterococcus sp.): 2 to 4 µg/mL
- MIC Enterococccus faecalis (ATCC 29212) (Enterococcus sp.): 2 to 4 µg/mL
- MIC Enterococccus faecalis (GC 2691) (Enterococcus sp.): 2 to 4 µg/mL
- MIC Enterococccus faecalis (GC 3059) (Enterococcus sp.): 2 to 4 µg/mL
- MIC Enterococccus faecalis (GC 4552) (Enterococcus sp.): 2 to 4 µg/mL
- MIC Enterococccus faecalis (GC 4553) (Enterococcus sp.): 2 to 4 µg/mL
- MIC Enterococccus faecalis (GC 4554) (Enterococcus sp.): 2 to 4 µg/mL
- MIC Enterococccus faecalis (GC 6189) (Enterococcus sp.): 2 to 4 µg/mL
- MIC Enterococccus faecium (GC 2243) (Enterococcus sp.): 2 to 4 µg/mL
- MIC Enterococccus faecium (GC 4556) (Enterococcus sp.): 2 to 4 µg/mL
- MIC Enterococccus faecium (GC 4557) (Enterococcus sp.): 1 to 2 µg/mL
- MIC Enterococcus faecalis (GC 2242) (Enterococcus sp.): 2 to 4 µg/mL
- Anatomical Pathology (Day 10), Heart [4]: +++
- Anatomical Pathology (Day 10), Kidney [4]: +++

SMILES: CC(C)CCC(=O)OC1C(CO)OC(OC2C(CO)OC(Oc3ccc(CC4NC(=O)C(C(C)c5ccccc5)NC(=O)CNC(=O)C(CO)NC(=O)C(C(O)C5CNC(=N)N5C5OC(CO)C(O)C(O)C5O)NC(=O)C(C(O)C5CNC(=N)N5)NC4=O)cc3)C(O)C2O)C(O)C1O (stereo not drawn) [Example 270c, Cyclo[glycyl-β-methylphenylalanyl-O-[4-O-[4-O-(4-methylpentanoyl)hexopyranosyl]-hexopyranosyl]tyrosyl-3-(2-iminoimidazolidin-4-yl)seryl-3-(3-hexopyranosyl-2-iminoimidazolidin-4-yl)serylseryl]]
- Zone of Inhibition vs. S. aureus (Staphylococcus aureus): 11 mm

SMILES: CCC(C)CC(=O)OC1C(CO)OC(OC2C(CO)OC(Oc3ccc(CC4NC(=O)C(C(C)c5ccccc5)NC(=O)CNC(=O)C(CO)NC(=O)C(C(O)C5CNC(=N)N5C5OC(CO)C(O)C(O)C5O)NC(=O)C(C(O)C5CNC(=N)N5)NC4=O)cc3)C(O)C2O)C(O)C1O (stereo not drawn) [Example 271c, Cyclo[glycyl-β-methylphenylalanyl-O-[4-O-[4-O-(3-methylpentanoyl)hexopyranosyl]-hexopyranosyl]tyrosyl-3-(2-iminoimidazolidin-4-yl)seryl-3-(3-hexopyranosyl-2-iminoimidazolidin-4-yl)serylseryl]]
- Zone of Inhibition vs. S. aureus (Staphylococcus aureus): 12 mm

SMILES: CCCC(=O)OC1C(O)C(CO)OC(OC2C(CO)OC(Oc3ccc(CC4NC(=O)C(C(C)c5ccccc5)NC(=O)CNC(=O)C(CO)NC(=O)C(C(O)C5CNC(=N)N5C5OC(CO)C(O)C(O)C5O)NC(=O)C(C(O)C5CNC(=N)N5)NC4=O)cc3)C(O)C2O)C1O (stereo not drawn) [Example 272b, Cyclo[glycyl-β-methylphenylalanyl-O-[4-O-(3-O-butanoyl-hexopyranosyl)-hexopyranosyl]tyrosyl-3-(2-iminoimidazolidin-4-yl)seryl-3-(3-hexopyranosyl-2-iminoimidazolidin-4-yl)serylseryl]]
- Zone of Inhibition vs. S. aureus (Staphylococcus aureus): 8 mm

SMILES: CCCCCC(=O)OC1C(O)C(CO)OC(OC2C(CO)OC(Oc3ccc(CC4NC(=O)C(C(C)c5ccccc5)NC(=O)CNC(=O)C(CO)NC(=O)C(C(O)C5CNC(=N)N5C5OC(CO)C(O)C(O)C5O)NC(=O)C(C(O)C5CNC(=N)N5)NC4=O)cc3)C(O)C2O)C1O (stereo not shown) [Example 273b]
- Zone of Inhibition vs. S. aureus (Staphylococcus aureus): 9 mm and 8 mm

SMILES: CCCCCCC(=O)OC1C(OC2C(CO)OC(Oc3ccc(CC4NC(=O)C(C(C)c5ccccc5)NC(=O)CNC(=O)C(CO)NC(=O)C(C(O)C5CNC(=N)N5C5OC(CO)C(O)C(O)C5O)NC(=O)C(C(O)C5CNC(=N)N5)NC4=O)cc3)C(O)C2O)OC(CO)C(O)C1O (stereo not drawn) [Example 274a, Cyclo[glycyl-β-methylphenylalanyl-O-[4-O-(2-O-heptanoyl-hexopyranosyl)-hexopyranosyl]tyrosyl-3-(2-iminoimidazolidin-4-yl)seryl-3-(3-hexopyranosyl-2-iminoimidazolidin-4-yl)serylseryl]]
- Zone of Inhibition vs. S. aureus (Staphylococcus aureus): 9 mm

SMILES: CCCCCCC(=O)OC1C(O)C(CO)OC(OC2C(CO)OC(Oc3ccc(CC4NC(=O)C(C(C)c5ccccc5)NC(=O)CNC(=O)C(CO)NC(=O)C(C(O)C5CNC(=N)N5C5OC(CO)C(O)C(O)C5O)NC(=O)C(C(O)C5CNC(=N)N5)NC4=O)cc3)C(O)C2O)C1O (stereo not drawn) [Example 274b, Cyclo[glycyl-β-methylphenylalanyl-O-[4-O-(3-O-heptanoyl-hexopyranosyl)-hexopyranosyl]tyrosyl-3-(2-iminoimidazolidin-4-yl)seryl-3-(3-hexopyranosyl-2-iminoimidazolidin-4-yl)serylseryl]]
- Zone of Inhibition vs. S. aureus (Staphylococcus aureus): 10 mm
